Test results taken from patent publication US8357832B2, “F1B-TMIR plasmid vector and transgenic mouse” (National Health Research Institutes, priority 2009, dated 2013).

Assays:
[1] = system: F1B-TMIR transfected CHO cells; assay: Luciferase activity assay after GCV treatment (sensitivity to GCV, functioning HSV1Δtk); assay type: cell-based, Chinese hamster; details: low or high concentration of GCV (0.005 or 0.1 μg/ml), 72 h, normalized to β-gal
Experimental: FIG. 1. (A) Structure of the F1B-TMIR transgenic vector. The restriction sites mentioned in the construction method are shown. (B) Fluorescent pictures of CHO cells transiently transfected by F1B-TMIR vector. Scale bar=100 μm. (C) The luciferase activity in F1B-TMIR transfected CHO cells following the incubation with GCV. The data shown were the luciferase activity normalized to the β-gal activity from a co-transfected RSV-β-gal vector. Error bars represent mean+SEM, n=3, *P<0.05, compared to the untreated group.
Chinese hamster ovary […] (CHO-K1) were maintained in F-12 medium supplemented with 10% fetal bovine serum (FBS) and the antibiotics penicillin, streptomycin, and amophotericin B (PSA) in a 95% air and 5% CO2 humidified incubator. DNA vectors including a RSV β-galactosidase control vector for normalization of transfection efficiency were transfected into the cells using PolyFect (Qiagen) reagent by following manufacturer's protocol. […]
The TMIR vectors driven by CMV or F1B promoter were constructed as foregoing description. […] There was a decrease in the number of cells expressing GFP and in the intensity of fluorescence in F1B-TMIR transfected cells than cells transfected by CMV-TMIR (FIG. 1B) as a result of weaker transactivity by FIB promoter. […]

[2] = system: CMV-TMIR transfected CHO cells; assay: as above; assay type: cell-based, Chinese hamster; details: low or high concentration of GCV (0.005 or 0.1 μg/ml), 72 h, normalized to β-gal
[3] = system: MDA-MB231 cells that constitutively express large amount of eGFP-tk; details: cited from earlier work
[4] = system: ZR75-1 cells that constitutively express low amount of eGFP-tk; details: cited from earlier work
[5] = system: TMIR expressing tissues (HSV1Δtk) of F1B-TMIR mice; assay: [131I]FIAU γ-camera imaging of F1B-TMIR transgenic mice; assay type: in vivo, mouse
From the text: FIG. 4. […] Image of young female mice #7, #29 (Right) was shown for comparison.
Carrier-free [^131I] (2′-fluoro-2′-deoxy-1-β-D-arabinofuranosyl-5-iodouracil) ([^131I]FIAU) was synthesized from 5-trimethylstannyl-1-(2′-deoxy-2′-fluoro-1-β-D-arabinofuranosyl)-uracil (FTAU) by an oxidative iododestannylation method as previously described (Deng W P, Yang W K, Lai W F, et al. Non-invasive in vivo imaging with radiolabelled FIAU for monitoring cancer gene therapy using herpes simplex virus type 1 thymidine kinase and ganciclovir. Eur J Nucl Med Mol Imaging. January 2004; 31 (1):99-109). The radiochemical purity of [^131I]FIAU was >95%, as determined by thin layer chromatograph (TLC) method on a silica gel coated aluminum sheet using ethyl acetate-ethanol mixture (90:10, v/v) as the mobile phase. A Siemens E.CAM dual-head γ-camera, equipped with custom-made 1 mm pinhole collimator, was used for the animal γ-imaging. To block the thyroid uptake of radioiodine, mice were injected with sodium iodine saline (0.9% sodium iodine in normal saline, 1 ml/animal) 15 min prior to the intraperitoneal injection of 11.1 MBq [^131I] FIAU. The animal was laid in the prone position and 4 cm distant from the pinhole center to provide a full coverage of the body. […] The image was scanned one week after injection of probe to ensure adequate clearance of unwanted background radioactivity. […]

| Structure (SMILES) | loss of luciferase activity [1] | loss of luciferase activity [2] | ED50 (the dose resulted in 50% of cell death after 7 days) [3] | ED50 (the dose resulted in 50% of cell death after 7 days) [4] | uptake at head (γ imaging) ([5]; F1B-TMIR mice #2, #7, #29, one week after probe injection) | uptake in testis (γ imaging) ([5]; male F1B-TMIR mice, one week after intraperitoneal injection of 11.1 MBq probe, absent in female mice) |
| --- | --- | --- | --- | --- | --- | --- |
| Nc1nc(O)c2ncn(COC(CO)CO)c2n1 [GCV, Ganciclovir] | 35% | 45% | 5 ng/mL | around 0.1 μg/ml | – | – |
| O=c1[nH]c(=O)n([C@@H]2O[C@H](CO)[C@@H](O)[C@@H]2F)cc1[131I] [[^131I]FIAU, [^131I] (2′-fluoro-2′-deoxy-1-β-D-arabinofuranosyl-5-iodouracil)] | – | – | – | – | low uptake | strong uptake |
